Where two headings read alike, the source gives them in different places.
Legend:
[1] = target: T1, BRM (Homo sapiens, UniProt P51531); assay: ATPase catalytic activity of BRM, ADP-Glo in vitro biochemical assay; settings: 30 nM BRM, 400 μM ATP
T1 construct: made in house; host or cells: High Five insect cells

[2] = target: T2, BRG-1 (Homo sapiens, UniProt P51532); assay: ATPase catalytic activity of BRG-1, ADP-Glo in vitro biochemical assay; settings: 30 nM BRG-1, 400 μM ATP
T2 construct: made in house; host or cells: High Five insect cells
T2 sequence (P51532 whole entry): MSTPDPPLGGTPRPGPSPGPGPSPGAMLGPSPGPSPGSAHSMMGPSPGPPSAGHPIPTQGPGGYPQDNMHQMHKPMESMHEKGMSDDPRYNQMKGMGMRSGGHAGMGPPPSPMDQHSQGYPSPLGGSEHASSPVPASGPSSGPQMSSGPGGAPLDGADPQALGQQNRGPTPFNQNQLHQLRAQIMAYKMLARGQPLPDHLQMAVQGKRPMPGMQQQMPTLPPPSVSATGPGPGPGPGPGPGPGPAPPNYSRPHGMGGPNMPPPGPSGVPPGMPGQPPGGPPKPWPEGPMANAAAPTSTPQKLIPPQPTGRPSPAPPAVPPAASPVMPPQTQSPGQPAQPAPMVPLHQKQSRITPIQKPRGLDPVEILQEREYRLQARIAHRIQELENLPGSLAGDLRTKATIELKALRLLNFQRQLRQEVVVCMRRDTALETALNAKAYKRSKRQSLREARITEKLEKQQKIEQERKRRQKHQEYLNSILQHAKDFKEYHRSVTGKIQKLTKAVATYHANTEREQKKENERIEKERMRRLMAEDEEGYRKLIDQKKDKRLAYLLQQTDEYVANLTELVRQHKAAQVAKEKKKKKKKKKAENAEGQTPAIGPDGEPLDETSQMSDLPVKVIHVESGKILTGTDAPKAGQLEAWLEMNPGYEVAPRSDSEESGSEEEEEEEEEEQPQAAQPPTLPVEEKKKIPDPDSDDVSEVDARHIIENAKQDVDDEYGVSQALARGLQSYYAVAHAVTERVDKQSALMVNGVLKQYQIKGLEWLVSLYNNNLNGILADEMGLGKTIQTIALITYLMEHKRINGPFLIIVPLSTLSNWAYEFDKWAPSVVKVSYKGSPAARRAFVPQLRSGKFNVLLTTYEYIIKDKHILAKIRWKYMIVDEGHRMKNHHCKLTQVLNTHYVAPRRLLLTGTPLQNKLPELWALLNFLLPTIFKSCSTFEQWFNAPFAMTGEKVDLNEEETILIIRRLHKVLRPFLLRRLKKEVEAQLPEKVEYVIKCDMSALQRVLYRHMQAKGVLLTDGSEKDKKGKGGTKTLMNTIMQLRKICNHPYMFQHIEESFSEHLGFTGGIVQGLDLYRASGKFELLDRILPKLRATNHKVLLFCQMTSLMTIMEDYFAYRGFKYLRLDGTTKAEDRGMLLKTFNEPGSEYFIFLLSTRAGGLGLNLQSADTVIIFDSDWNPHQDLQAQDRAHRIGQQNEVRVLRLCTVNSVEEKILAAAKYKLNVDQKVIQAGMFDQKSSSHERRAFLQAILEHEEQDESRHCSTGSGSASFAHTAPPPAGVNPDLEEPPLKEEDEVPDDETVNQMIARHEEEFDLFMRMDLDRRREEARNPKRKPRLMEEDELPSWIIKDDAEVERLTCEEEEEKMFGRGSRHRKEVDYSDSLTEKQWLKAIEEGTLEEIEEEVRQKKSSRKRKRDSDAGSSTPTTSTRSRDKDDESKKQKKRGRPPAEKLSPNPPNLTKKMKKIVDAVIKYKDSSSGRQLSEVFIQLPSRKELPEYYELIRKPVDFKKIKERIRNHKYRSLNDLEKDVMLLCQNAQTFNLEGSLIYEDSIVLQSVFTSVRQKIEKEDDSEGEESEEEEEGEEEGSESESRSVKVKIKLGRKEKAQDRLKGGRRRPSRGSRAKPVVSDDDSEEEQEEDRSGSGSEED

[3] = ATPase catalytic activity, read-out: BRM IP50 (μM)*
[4] = ATPase catalytic activity, read-out: BRG1 IP50 (μM)*
[5] = ATPase catalytic activity, read-out: BRM IP50
[6] = ATPase catalytic activity, read-out: BRG1 IP50

T1 sequence (P51531 whole entry): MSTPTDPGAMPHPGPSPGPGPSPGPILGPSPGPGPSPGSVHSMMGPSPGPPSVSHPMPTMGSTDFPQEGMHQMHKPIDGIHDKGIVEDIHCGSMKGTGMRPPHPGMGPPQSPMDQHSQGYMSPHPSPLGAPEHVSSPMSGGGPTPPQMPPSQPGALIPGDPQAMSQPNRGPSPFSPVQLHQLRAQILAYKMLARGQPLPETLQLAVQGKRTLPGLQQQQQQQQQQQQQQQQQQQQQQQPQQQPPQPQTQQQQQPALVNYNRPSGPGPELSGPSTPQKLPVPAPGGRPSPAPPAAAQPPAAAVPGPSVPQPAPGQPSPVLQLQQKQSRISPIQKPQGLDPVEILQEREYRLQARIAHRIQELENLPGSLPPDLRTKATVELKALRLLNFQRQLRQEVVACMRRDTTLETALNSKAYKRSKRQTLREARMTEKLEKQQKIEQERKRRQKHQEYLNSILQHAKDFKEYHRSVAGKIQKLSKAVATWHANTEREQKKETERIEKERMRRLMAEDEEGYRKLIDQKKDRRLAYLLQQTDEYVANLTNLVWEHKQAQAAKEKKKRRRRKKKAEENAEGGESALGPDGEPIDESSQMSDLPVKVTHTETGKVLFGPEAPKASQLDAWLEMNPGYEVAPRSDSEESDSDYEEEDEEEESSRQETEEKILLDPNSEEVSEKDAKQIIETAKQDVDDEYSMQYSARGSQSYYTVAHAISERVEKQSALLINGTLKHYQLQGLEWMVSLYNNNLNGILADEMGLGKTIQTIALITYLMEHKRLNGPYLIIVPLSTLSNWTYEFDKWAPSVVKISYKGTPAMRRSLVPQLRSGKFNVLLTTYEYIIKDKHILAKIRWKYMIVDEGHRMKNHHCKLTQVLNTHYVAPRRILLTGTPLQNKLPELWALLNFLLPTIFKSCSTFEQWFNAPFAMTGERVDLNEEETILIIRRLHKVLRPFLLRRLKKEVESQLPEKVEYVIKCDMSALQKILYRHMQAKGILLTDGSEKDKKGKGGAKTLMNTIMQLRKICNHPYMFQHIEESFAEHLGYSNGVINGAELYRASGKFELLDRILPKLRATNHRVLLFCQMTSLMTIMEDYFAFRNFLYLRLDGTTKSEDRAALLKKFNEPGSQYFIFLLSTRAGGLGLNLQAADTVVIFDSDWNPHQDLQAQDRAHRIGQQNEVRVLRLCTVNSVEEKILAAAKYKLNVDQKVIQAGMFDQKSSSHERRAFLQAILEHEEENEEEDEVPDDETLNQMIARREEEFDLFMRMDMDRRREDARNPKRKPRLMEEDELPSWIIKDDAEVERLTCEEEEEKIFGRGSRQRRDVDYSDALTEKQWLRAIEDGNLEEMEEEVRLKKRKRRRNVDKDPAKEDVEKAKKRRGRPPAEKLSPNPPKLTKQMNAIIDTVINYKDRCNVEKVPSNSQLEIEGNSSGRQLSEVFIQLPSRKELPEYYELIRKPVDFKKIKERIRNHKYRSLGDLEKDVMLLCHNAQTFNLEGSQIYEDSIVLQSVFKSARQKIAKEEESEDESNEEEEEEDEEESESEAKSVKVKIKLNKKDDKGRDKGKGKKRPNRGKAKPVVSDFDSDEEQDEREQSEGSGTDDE

SMILES	IC50 [1, 3]	IC50 [2, 4]	IC50 [1, 5]	IC50 [2, 6]	also measured
CS(=O)(=O)n1ccc(C(=O)NCC(=O)Nc2nc(-c3cccc(N4CC[C@@H](O)[C@H](F)C4)c3)cs2)c1 [Compound 195]	< 0.01 µM	< 0.01 µM	–	–	–
CC(C)(C)c1cccc(-c2csc(NC(=O)CNC(=O)c3ccn(S(C)(=O)=O)c3)n2)c1 [Compound 140, N-(2-((4-(3-(tert-butyl)phenyl)thiazol-2-yl)amino)-2-oxoethyl)-1-(methylsulfonyl)-1H-pyrrole-3-carboxamide]	> 0.1 µM	> 0.1 µM	–	–	–
C[C@@H]1CN(c2cccc(-c3csc(NC(=O)CNC(=O)c4ccn(C5(C#N)CC5)n4)n3)n2)C[C@H](C)O1 [Compound 806]	–	–	–	–	IC50 ([1]; read-out: BRM IP50): > 0.01 µM; IC50 ([2]; read-out: BRG1 IP50): > 0.01 µM
CO[C@@]1(C)CCCN(c2cccc(-c3csc(NC(=O)CNC(=O)c4ccn(S(C)(=O)=O)c4)n3)c2)C1 [Compound 258]	> 0.01 µM	> 0.01 µM	–	–	–
CC1(C)CN(c2cccc(-c3csc(NC(=O)CNC(=O)c4ccn(S(C)(=O)=O)c4)n3)c2)CC[C@@H]1O [Compound 165]	> 0.01 µM	> 0.01 µM	–	–	–
CCS(=O)(=O)n1ccc(C(=O)NCC(=O)Nc2nc(-c3cccc(N4C[C@@H](C)O[C@@H](C)C4)c3)cs2)c1 [Compound 228]	< 0.01 µM	> 0.01 µM	–	–	–
Cn1ccc(-c2cccc(-c3csc(NC(=O)CNC(=O)c4ccn(C(C)(C)C)c4)n3)n2)n1 [Compound 145]	> 0.01 µM	> 0.01 µM	–	–	–
CO[C@H]1C[C@H](Oc2cccc(-c3csc(NC(=O)CNC(=O)c4ccn(S(C)(=O)=O)c4)n3)c2)C1 [Compound 252]	> 0.01 µM	> 0.01 µM	–	–	–
Cc1nccn1-c1cccc(-c2csc(NC(=O)CNC(=O)c3ccn(S(C)(=O)=O)c3)n2)c1 [Compound 115, N-(2-((4-(3-(2-methyl-1H-imidazol-1-yl)phenyl)thiazol-2-yl)amino)-2-oxoethyl)-1-(methylsulfonyl)-1H-pyrrole-3-carboxamide]	> 0.1 µM	> 0.1 µM	–	–	–
C[C@@]1(O)CCCN(c2cccc(-c3csc(NC(=O)CNC(=O)c4ccn(S(C)(=O)=O)c4)n3)c2)C1 [Compound 206]	< 0.01 µM	> 0.01 µM	–	–	–
CS(=O)(=O)n1ccc(C(=O)NCC(=O)Nc2nc(-c3cc(F)c4ccoc4c3)cs2)c1 [Compound 253]	> 0.01 µM	> 0.01 µM	–	–	–
C[C@@H]1CN(c2cccc(-c3csc(NC(=O)CNC(=O)c4ccn(C(C)(C)C#N)c4)n3)n2)C[C@H](C)O1 [Compound 331]	< 0.01 µM	< 0.01 µM	–	–	–

The next lines start with results.

IC50 [1, 3]	IC50 [2, 4]	IC50 [1, 5]	IC50 [2, 6]	SMILES	also measured
–	–	< 0.01 µM	< 0.01 µM	COC[C@H](NC(=O)c1ccn(S(C)(=O)=O)c1)C(=O)Nc1nc(-c2cc(F)cc(-c3cnn(C)n3)c2)cs1 [Compound 738]	–
–	–	> 0.01 µM	> 0.1 µM	CC(C)(C)n1ccc(C(=O)NCC(=O)Nc2nc(-c3cccc(OC4CC4)c3F)cs2)c1 [Compound 547]	–
–	–	> 0.01 µM	> 0.01 µM	CC(C)(C)n1ccc(C(=O)NCC(=O)Nc2nc(-c3cccc(C45CCOCC4C5)n3)cs2)c1 (stereo not drawn) [Compound 751]	–
–	–	> 0.01 µM	> 0.01 µM	CC(C)(C)n1ccc(C(=O)NCC(=O)Nc2nc(-c3cccc(N4CCC5(CCCCO5)C4)n3)cs2)c1 (stereo not drawn) [Compound 631]	–
–	–	> 0.1 µM	> 0.1 µM	CC(C)(C)n1ccc(C(=O)NCC(=O)Nc2nc(-c3cccc(N4C[C@@H]5[C@@H](CF)[C@@H]5C4)n3)cs2)c1 [Compound 689]	–
–	–	< 0.01 µM	< 0.01 µM	Cc1cc(C)nc(-c2cccc(-c3csc(NC(=O)CNC(=O)c4ccn(S(C)(=O)=O)c4)n3)c2)n1 [Compound 405]	–
–	–	> 0.1 µM	> 0.1 µM	CC(C)(C)n1ccc(C(=O)NCC(=O)Nc2nc(-c3cccc(N4CCC(n5cncn5)CC4)n3)cs2)c1 [Compound 682]	–
–	–	> 0.1 µM	> 0.1 µM	CC(C)(C)n1ccc(C(=O)NCC(=O)Nc2nc(-c3cccc(N4CCC5(CC4)CC(F)C5)n3)cs2)c1 [Compound 628]	–
–	–	> 0.1 µM	> 0.1 µM	C[C@@H]1CN(c2cccc(-c3csc(NC(=O)CNC(=O)c4ccn(S(C)(=O)=O)c4)n3)c2)[C@@H](C)CO1 [Compound 471]	–

— patent US20230079819A1, “COMPOUNDS AND USES THEREOF” (Foghorn Therapeutics Inc., priority 2019, published 2023)
